Data reported in patent publication US20260109715A1, “IMIDAZOPYRIDINE DERIVATIVES WITH BICYCLIC STRUCTURE” (PUBLIC UNIVERSITY CORPORATION YOKOHAMA CITY UNIVERSITY, priority 2022, published 2026).
Where a name gives a salt, the structure may show the parent alone. Read-outs that look alike come from different tables or passages of the source.

What was measured:
[1] = test system: Snhg1 transcript (NMD target gene) in EMT6 murine breast cancer cell line; test: Measurement of NMD inhibitory activity in cells (increase in Snhg1 transcript, real-time PCR); parameters: species or system mouse; conditions: 6 hours treatment, concentration giving 1/2 of maximum Snhg1 fold change of positive control, read-out: Test Example 2 Cell-based Snhg1 EC50
Description: The NMD inhibitory activity of a compound of the present invention or a pharmaceutically acceptable salt thereof in cells can be measured, for example, by the method described below. EMT6 murine breast cancer cell line is treated with a test substance in vitro for 6 hours, and the increase in the transcript of Snhg1, a known NMD target gene, is quantified as an indicator of NMD inhibition. Quantification is performed by real-time PCR.
NMD inhibitory activity was measured by treating EMT6 murine breast cancer cell line (ATCC) with a test substance and quantifying the increase in the transcript of Snhg1, an NMD target gene (see F. Usui, et al., Scientific Reports volume 9, Article number: 1279 (2019) for the NMD target gene). That is, EMT6 cells were suspended in Waymouth's medium (Gibco, 15% FBS) and seeded in a 96-well plate at 2×10^4 cells/well. The cells were cultured for 1 day. The next day, serially diluted test substance (DMSO solution, final DMSO concentration: 2%) was added. After culturing for 6 hours, the supernatant was removed, and RNA was extracted using the RNeasy 96 kit (QIAGEN, 74182). After synthesizing cDNA using the High Capacity cDNA Reverse Transcription kit (Applied Biosystems, 4368813), the cDNA was mixed with PrimeTime Gene Expression Master Mix (Integrated DNA Technologies) and various probes, and gene expression was quantified using QuantStudio 6 Flex (Thermo Fisher Scientific Inc.). For the probe for the Snhg1 gene, which is an NMD target, Mm.PT.58.44039547 (FAM)(Integrated DNA Technologies) was used, and for the probe for the Tbp gene, which is an endogenous control, Mm00446973_m1 Tbp (VIC-PL) (Applied Biosystems) was used. The relative quantification of Snhg1 transcripts was calculated by the ΔΔCT method, using Thp as an endogenous control and setting the expression level of Snhg1 in untreated wells to 1.
A known NMD inhibitory compound (pyrimidine derivative Example 11i, Bioorg Med Chem Lett. 2012, 22(21), 6636-41) was used as a positive control drug for NMD inhibition. The NMD inhibitory activity of the test substance-added well was calculated as follows: the maximum fold change in Sngh1 expression in the positive control drug-added well relative to that in the untreated well was defined as the maximum NMD inhibitory activity, and the EC50 (compound concentration showing 50%/activity) of the test substance showing a ½-fold change was calculated by the GROWTH function of Microsoft Excel.

human SMG1 enzyme = human SMG1 enzyme (Homo sapiens, UniProt Q96Q15); test: Measurement of SMG1 kinase activity (ADP-Glo Kinase Assay); format: biochemical; conditions: purified human SMG1 enzyme 5 nM, Upf1 peptide substrate, ATP 4 μM; qAC50 synonymous with IC50; read-out: Test Example 1 ADP-Glo IC50
Sequence of human SMG1 enzyme (Q96Q15 whole entry): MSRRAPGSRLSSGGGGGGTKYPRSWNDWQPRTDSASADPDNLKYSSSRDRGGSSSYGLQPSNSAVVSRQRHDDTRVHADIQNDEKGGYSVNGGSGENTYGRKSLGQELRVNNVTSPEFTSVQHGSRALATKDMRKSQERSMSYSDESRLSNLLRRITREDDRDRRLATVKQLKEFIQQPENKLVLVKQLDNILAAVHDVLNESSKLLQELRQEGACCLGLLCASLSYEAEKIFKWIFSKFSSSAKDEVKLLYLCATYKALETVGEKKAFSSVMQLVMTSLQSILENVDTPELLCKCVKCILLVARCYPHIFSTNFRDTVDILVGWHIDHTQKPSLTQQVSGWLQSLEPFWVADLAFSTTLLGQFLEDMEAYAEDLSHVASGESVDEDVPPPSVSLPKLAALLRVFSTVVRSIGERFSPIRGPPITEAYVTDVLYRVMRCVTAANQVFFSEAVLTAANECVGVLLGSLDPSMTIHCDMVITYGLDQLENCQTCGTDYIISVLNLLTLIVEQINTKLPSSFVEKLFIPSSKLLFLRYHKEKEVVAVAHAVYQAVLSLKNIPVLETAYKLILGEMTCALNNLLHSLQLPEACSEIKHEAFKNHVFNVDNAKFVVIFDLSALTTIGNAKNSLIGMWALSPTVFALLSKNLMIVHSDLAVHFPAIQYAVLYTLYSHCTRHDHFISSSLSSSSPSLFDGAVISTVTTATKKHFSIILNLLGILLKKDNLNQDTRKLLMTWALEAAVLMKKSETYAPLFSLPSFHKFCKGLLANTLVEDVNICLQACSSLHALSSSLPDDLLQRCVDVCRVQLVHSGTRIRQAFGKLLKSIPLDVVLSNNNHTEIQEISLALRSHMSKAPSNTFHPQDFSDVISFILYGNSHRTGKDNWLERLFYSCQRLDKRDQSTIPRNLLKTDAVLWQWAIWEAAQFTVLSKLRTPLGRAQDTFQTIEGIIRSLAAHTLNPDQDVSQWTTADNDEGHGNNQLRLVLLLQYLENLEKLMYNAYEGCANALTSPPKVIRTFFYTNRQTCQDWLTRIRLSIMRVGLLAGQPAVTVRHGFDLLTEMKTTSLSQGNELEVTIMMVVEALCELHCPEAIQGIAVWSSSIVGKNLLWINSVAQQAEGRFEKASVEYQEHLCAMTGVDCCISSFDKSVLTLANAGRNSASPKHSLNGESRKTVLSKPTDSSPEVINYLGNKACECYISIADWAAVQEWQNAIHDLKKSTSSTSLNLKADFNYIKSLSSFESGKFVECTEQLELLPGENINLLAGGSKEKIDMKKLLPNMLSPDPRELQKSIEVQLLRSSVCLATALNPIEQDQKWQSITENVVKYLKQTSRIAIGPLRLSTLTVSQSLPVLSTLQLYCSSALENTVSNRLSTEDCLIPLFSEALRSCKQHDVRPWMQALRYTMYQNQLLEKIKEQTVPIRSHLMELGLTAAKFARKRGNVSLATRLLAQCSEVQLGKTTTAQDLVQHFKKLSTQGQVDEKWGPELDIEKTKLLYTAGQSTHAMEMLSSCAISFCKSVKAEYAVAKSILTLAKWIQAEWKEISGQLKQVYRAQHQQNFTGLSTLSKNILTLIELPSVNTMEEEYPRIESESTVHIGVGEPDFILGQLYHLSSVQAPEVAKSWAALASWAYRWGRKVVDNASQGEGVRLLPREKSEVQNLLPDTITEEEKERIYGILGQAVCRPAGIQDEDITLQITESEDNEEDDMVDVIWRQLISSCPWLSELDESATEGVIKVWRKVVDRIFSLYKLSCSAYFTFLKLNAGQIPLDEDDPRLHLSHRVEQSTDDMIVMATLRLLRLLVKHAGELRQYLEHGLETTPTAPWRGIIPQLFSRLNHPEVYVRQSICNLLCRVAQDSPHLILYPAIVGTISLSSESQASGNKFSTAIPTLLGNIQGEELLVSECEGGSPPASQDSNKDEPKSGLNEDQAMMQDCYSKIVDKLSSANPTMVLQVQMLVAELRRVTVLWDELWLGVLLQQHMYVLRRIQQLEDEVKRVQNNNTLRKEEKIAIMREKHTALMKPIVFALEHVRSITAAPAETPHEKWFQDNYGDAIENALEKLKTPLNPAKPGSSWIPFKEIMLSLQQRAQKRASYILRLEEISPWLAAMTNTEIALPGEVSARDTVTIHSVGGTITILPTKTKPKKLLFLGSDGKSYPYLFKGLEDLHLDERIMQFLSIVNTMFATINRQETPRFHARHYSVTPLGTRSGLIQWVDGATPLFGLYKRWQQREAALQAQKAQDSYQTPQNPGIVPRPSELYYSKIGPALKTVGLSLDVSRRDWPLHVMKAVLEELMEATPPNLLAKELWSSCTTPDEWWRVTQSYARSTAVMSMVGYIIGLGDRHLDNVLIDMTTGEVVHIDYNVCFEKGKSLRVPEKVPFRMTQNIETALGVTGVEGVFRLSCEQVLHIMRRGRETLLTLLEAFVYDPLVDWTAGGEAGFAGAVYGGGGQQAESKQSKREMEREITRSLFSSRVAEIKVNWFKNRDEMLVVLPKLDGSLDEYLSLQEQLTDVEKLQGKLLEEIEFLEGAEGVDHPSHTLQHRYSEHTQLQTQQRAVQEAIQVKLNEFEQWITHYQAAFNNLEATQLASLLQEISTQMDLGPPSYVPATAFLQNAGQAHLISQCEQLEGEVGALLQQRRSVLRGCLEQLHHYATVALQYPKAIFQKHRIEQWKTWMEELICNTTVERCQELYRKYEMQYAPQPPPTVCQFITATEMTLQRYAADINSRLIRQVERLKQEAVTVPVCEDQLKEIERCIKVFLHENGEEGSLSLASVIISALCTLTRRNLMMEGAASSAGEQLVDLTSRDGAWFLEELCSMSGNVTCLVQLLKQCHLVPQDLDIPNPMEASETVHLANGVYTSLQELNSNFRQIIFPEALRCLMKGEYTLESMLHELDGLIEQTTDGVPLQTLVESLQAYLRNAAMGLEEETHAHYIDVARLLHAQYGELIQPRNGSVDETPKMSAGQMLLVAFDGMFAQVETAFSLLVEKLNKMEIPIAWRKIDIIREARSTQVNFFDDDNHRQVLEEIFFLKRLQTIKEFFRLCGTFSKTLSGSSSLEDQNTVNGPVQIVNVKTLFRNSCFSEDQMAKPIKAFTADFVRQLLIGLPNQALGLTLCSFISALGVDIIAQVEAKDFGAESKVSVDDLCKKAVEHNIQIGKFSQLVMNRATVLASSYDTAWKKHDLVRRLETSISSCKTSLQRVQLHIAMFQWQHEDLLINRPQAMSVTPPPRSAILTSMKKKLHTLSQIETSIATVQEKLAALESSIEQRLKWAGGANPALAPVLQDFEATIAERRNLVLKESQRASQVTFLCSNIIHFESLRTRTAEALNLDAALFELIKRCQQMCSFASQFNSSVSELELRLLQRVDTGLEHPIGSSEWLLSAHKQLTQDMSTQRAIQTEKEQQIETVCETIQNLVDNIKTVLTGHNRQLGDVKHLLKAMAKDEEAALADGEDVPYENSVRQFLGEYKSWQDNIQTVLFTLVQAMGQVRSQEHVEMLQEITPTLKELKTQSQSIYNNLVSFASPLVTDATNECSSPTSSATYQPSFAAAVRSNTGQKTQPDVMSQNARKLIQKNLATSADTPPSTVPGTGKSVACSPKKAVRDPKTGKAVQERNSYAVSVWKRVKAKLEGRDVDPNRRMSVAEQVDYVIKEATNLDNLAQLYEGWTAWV
Description: The SMG1 kinase inhibitory activity of a compound of the present invention or a pharmaceutically acceptable salt thereof can be measured, for example, by the method described below. Using purified human SMG1 protein and a substrate peptide as materials, the kinase activity can be measured by the ADP-Glo Kinase Assay; the SMG1 kinase inhibitory activity of a test substance can be evaluated by comparing the kinase activity in the presence and absence of the test substance.
The reaction was performed by the ADP-Glo Kinase Assay (Promega, catalog number V9102) using a 384-well plate under the conditions of an assay buffer (100 mM HEPES (pH 7.5), 50 mM NaCl, 10 mM MnCl2, 0.01% BSA, 0.1% Tween 20.5 mM TCEP). After incubating a test substance (DMSO solution; final DMSO concentration: 1%) and purified human SMG1 enzyme (Genes Dev. 2011 Jan. 15; 25(2): 153-164, produced by Daiichi Sankyo RD Novare Co., Ltd.; final concentration: 5 nM) at room temperature for 15 minutes, a substrate, Upf1 peptide (Biotin-(PEG8) QIDVALSQDSTYQG, produced by Eurofins genomics; final concentration: 8 μg/mL), and ATP (Promega: 4 μM) were added, and the mixture was reacted at room temperature for 60 minutes (see Non-Patent Literature R. Melero, et al., Structure Volume 22, Issue 8, 5 Aug. 2014, Pages 1105-1119 for the Upf1 peptide). ADP-Glo Reagent was added, and the mixture was reacted at room temperature for 40 minutes. Kinase Detection Reagent was added, and the mixture was reacted for another 30 minutes. The luminescence intensity was measured using EnVision (PerkinElmer).
The activity value (%) of the test substance-added well was calculated from the following formula, where the average luminescence intensity of the DMSO-added well was 0% and the average luminescence intensity of the SMG1 enzyme-free well was −100%.
The qAC50 (compound concentration showing 50% inhibition, synonymous with IC50) of the test substance was calculated using the activity value (%) at each concentration by Smart fit of Screener (Genedata). Smart fit is a general 4-parameter logistic regression model.

Row | Compound | EC50 ([1]; Mus musculus) [nM] | IC50 (human SMG1 enzyme) [nM] | EC50 [1] [nM]
1 | O=c1[nH]c2ccncc2cc1-c1nc2c(N3CCOC[C@H]3C(F)F)nc(Cl)cc2[nH]1 [Example 4, 3-{6-chloro-4-[(3S)-3-(difluoromethyl)morpholin-4-yl]-1H-imidazo[4,5-c]pyridin-2-yl}-1,6-naphthyridin-2(1H)-one] | 41 | 2.4 | –
2 | COc1ncc(-c2nccc3[nH]c(=O)c(-c4nc5c(N6C[C@H](F)C[C@H]6C)nc(Cl)cc5[nH]4)cc23)c(OC)n1 [Example 71, 3-(6-chloro-4-[(2R,4R)-4-fluoro-2-methylpyrrolidin-1-yl]-1H-imidazo[4,5-c]pyridin-2-yl)-5-(2,4-dimethoxypyrimidin-5-yl)-1,6-naphthyridin-2(1H)-one] | 2.3 | 1.3 | –
3 | [2H]C([2H])([2H])Oc1ccccc1-c1nccc2[nH]c(=O)c(-c3nc4c(CC(=O)NC(C)(C)C)nc(Cl)cc4[nH]3)cc12 [Example 42, N-tert-butyl-2-[6-chloro-2-(5-{2-[(^2H3)methyloxy]phenyl}-2-oxo-1,2-dihydro-1,6-naphthyridin-3-yl)-1H-imidazo[4,5-c]pyridin-4-yl]acetamide] | 124 | 2.6 | –
4 | C[C@@H](Nc1nc(Cl)cc2[nH]c(-c3cc4c(N5CCN(C)CC5)nccc4[nH]c3=O)nc12)C(F)(F)F [Example 7, 3-(6-chloro-4-{[(2R)-1,1,1-trifluoropropan-2-yl]amino}-1H-imidazo[4,5-c]pyridin-2-yl)-5-(4-methylpiperazin-1-yl)-1,6-naphthyridin-2(1H)-one] | 95 | 6 | –
5 | CN(c1nc(Cl)cc2[nH]c(-c3cc4cnccc4[nH]c3=O)nc12)[C@H]1CC[C@H](O)CC1 [Example 5, 3-{6-chloro-4-[(trans-4-hydroxycyclohexyl)(methyl)amino]-1H-imidazo[4,5-c]pyridin-2-yl}-1,6-naphthyridin-2(1H)-one] | 30 | 1.4 | –
6 | 5-(2-chloro-6-fluorophenyl)-3-(6-chloro-1H-imidazo[4,5-c]pyridin-2-y1)-1,6-naphthyridin-2(1H)-one [Example 30] | – | 1.9 | 40
7 | Cc1c(OC(F)F)cccc1-c1nccc2[nH]c(=O)c(-c3nc4cnc(Cl)cc4[nH]3)cc12 [Example 33, 3-(6-chloro-1H-imidazo[4,5-c]pyridin-2-y1)-5-[3-(difluoromethoxy)-2-methylpheny1]-1,6-naphthyridin-2(1H)-one] | 48 | 3 | –
8 | COc1cc(C(C)(F)F)ncc1-c1nccc2[nH]c(=O)c(-c3nc4c(C)nc(Cl)cc4[nH]3)cc12 [Example 65, 3-(6-chloro-4-methyl-1H-imidazo[4,5-c]pyridin-2-yl)-5-[6-(1,1-difluoroethyl)-4-methoxypyridin-3-yl]-1,6-naphthyridin-2(1H)-one] | 15 | 0.69 | –
9 | Nc1cccc(-c2nc(Cl)cc3[nH]c(-c4cc5cnccc5[nH]c4=O)nc23)c1 [Example 24, 3-[4-(3-aminophenyl)-6-chloro-1H-imidazo[4,5-c]pyridin-2-yl]-1H-1,6-naphthyridin-2-one trifluoroacetate] | 76 | 2.2 | –

More lines, now with the values ahead:

Row | EC50 ([1]; Mus musculus) [nM] | IC50 (human SMG1 enzyme) [nM] | EC50 [1] [nM] | Compound
10 | 8.4 | 1.6 | – | Cc1c2cccc1-c1nccc3[nH]c(=O)c(cc13)-c1nc3c(nc(Cl)cc3[nH]1)NCC(C)(C)NC(=O)CO2 [Example 111, 7-chloro-12,12,31-trimethyl-16-oxa-3,8,10,13,23,27,32-heptaazahexacyclo[20.6.2.1^2,5.1^17,21.0^4,9.0^26,30]dotriacont-1(29),2,4,6,8,17(31),18,20,22(30),23,25-undecaen-14,28-dione]
11 | 28 | 2.2 | – | CCc1nccc2[nH]c(=O)c(-c3nc4c(N5CC[C@H](O)[C@H]5C)nc(Cl)cc4[nH]3)cc12 [Example 122, 3-{6-chloro-4-[(2R,3S)-3-hydroxy-2-methylpyrrolidin-1-yl]-1H-imidazo[4,5-c]pyridin-2-yl}-5-ethyl-1,6-naphthyridin-2(1H)-one methanesulfonate]
12 | 82 | 1 | – | O=c1[nH]c2ccnc(-c3cnn4c3OCCC4)c2cc1-c1nc2cnc(Cl)cc2[nH]1 [Example 95, 3-(6-chloro-1H-imidazo[4,5-c]pyridin-2-yl)-5-(6,7-dihydro-5H-pyrazolo[5,1-b][1,3]oxazin-3-yl)-1,6-naphthyridin-2(1H)-one]
13 | 37 | 0.96 | – | C[C@@H]1C[C@H](O)CN1c1nc(Cl)cc2[nH]c(-c3cc4cnccc4[nH]c3=O)nc12 [Example 120, 3-{6-chloro-4-[(2R,4S)-4-hydroxy-2-methylpyrrolidin-1-yl]-1H-imidazo[4,5-c]pyridin-2-yl}-1,6-naphthyridin-2(1H)-one methanesulfonate]
14 | 24 | 3.4 | – | C[C@@H]1C[C@@H](F)CN1c1nc(Cl)cc2[nH]c(-c3cc4c(C5CCOCC5)nccc4[nH]c3=O)nc12 [Example 119, 3-{6-chloro-4-[(2R,4R)-4-fluoro-2-methylpyrrolidin-1-yl]-1H-imidazo[4,5-c]pyridin-2-yl}-5-(tetrahydro-2H-pyran-4-yl)-1,6-naphthyridin-2(1H)-one methanesulfonate]
15 | 38 | 1.2 | – | O=C1CCn2cc(cn2)-c2nccc3[nH]c(=O)c(cc23)-c2nc3c(nc(Cl)cc3[nH]2)N2CCCN1CC2 [Example 116, 7-chloro-3,8,10,14,18,19,23,27,34-nonaazaheptacyclo[20.6.2.2^10,14.1^2,5.1^18,21.0^4,9.0^26,30]tetratriacont-1(29),2,4,6,8,19,21(31),22(30),23,25-decaen-15,28-dione]
16 | 46 | 1.1 | – | Cc1nn(C)c(C)c1-c1nccc2[nH]c(=O)c(-c3nc4cnc(Cl)cc4[nH]3)cc12 [Example 88, 3-(6-chloro-1H-imidazo[4,5-c]pyridin-2-yl)-5-(1,3,5-trimethyl-1H-pyrazol-4-yl)-1,6-naphthyridin-2(1H)-one]
17 | 18 | 1.1 | – | CS(=O)(=O)O.[2H]C([2H])([2H])Oc1ccccc1-c1nccc2[nH]c(=O)c(-c3nc4c(N[C@H]5CCOC5)nc(Cl)cc4[nH]3)cc12 [Example 134, 3-{6-chloro-4-[(3S)-tetrahydrofuran-3-ylamino]-1H-imidazo[4,5-c]pyridin-2-yl}-5-(2-[(2H3)methyloxy]phenyl)-1,6-naphthyridin-2(1H)-one methanesulfonate]
18 | 165 | 2.3 | – | Cc1cc2ccc1-c1nccc3[nH]c(=O)c(cc13)-c1nc3c(nc(Cl)cc3[nH]1)N(C)CCC(=O)N(C)C2 [Example 109, 7-chloro-10,14,18-trimethyl-3,8,10,14,21,25,31-heptaazahexacyclo[18.6.2.2^16,19.1^2,5.0^4,9.0^24,28]hentriacont-1(27),2,4,6,8,16,18,20(28),21,23,29-undecaen-13,26-dione]
